These results are taken from patent publication US20250108048A1, “STING AGONIST COMPOUNDS AND CONJUGATES” (SUTRO BIOPHARMA, INC., priority 2023, published 2025).

Like-named read-outs stand apart in the source and are kept apart here.

One assay deals with hSTING AQ (Homo sapiens, UniProt Q86WV6, G230A/H232R/R293Q). The assay can be described thus: Surface plasmon resonance, hSTING AQ. It is filed as binding. The settings on record: read-out: hSTING AQ SPR (Kd).
For the next assay, the system named is NCI-H292 cells. The assay can be described thus: Immunogenic cell death markers (HMGB1 release, surface calreticulin). It is filed as cell-based, human. The note with it: 48 hours; for EC50: Homo sapiens. On the procedure:
Immunogenic cell death elicited by the TROP2 ADC, iSAC, and exatecan were measured by cell surface translocate of calreticulin and release of HMGB1 in the cell culture supernatant. Briefly, TROP2 positive cell line NCI-H292 were seeded into a 96-well flat bottom plate 4 hours prior to the initialization of the assay. Test articles were formulated at a 2× starting concentration in cell culture medium, and samples were serial diluted (1:3) under sterile conditions and added onto the cells in duplicates. After incubation at 37° C. in a CO2 incubator for 48 hours, the cell supernatant was collected for measuring HMGB1 and the adherent cells were collected for calreticulin expression on the cell surface.
HMGB1 released in the supernatant was assessed via sandwich ELISA using mouse anti-human HMGB1 clone 2F6 (Sigma-Aldrich) as the capture, polyclonal rabbit anti-human HMGB1 (Abcam) as secondary, and polyclonal goat anti-rabbit IgG HRP as the detection antibody. The HMGB1 concentrations in the cell culture medium were calculated based a standard curve built on commercially available recombinant human HMGB1 (R&D Systems).
NCI-H292 cells were detached using Accutase (Innovative Cell Technologies) and viability was accessed using a 1:500 dilution of Zombie NIR viability dye. […] Surface calreticulin measures on the live cells were gathered using an Attune NXT Flow Cytometer (ThermoFisher Scientific) to obtain median fluorescence intensity values. All data were fitted with non-linear regression analysis, using log(agonist) vs. response, variable slope, 4 parameter fit equation using GraphPad Prism.

Assay [1] deals with TROP2 positive NCI-H292 Cells. As to the kind of experiment: Cytokine release from cancer cells (MSD). It is filed as cell-based, human. The settings on record: 120 hours; for EC50: Homo sapiens. On the procedure: The cell supernatant was collected and IP-10 and IL-6 released in the cell culture medium was measured using Streptavidin single spot 96 well plates, compatible human antibody pairs, and calibrating solutions commercially available from MesoScale Discovery. Raw data generated by the Meso Scale Discovery (MSD®) SQ120 plate reader was imported into MSD Discovery Workbench software. Unknown sample values were interpolated from standard curves by the software and imported into Graphpad Prism. Each cytokine level was fitted with non-linear regression analysis, using log (agonist) vs. response, variable slope, 4-parameter fit equation in GraphPad Prism.

Assay [2] deals with T1, hSTING H232 (Homo sapiens, UniProt Q86WV6). The assay can be described thus: THP1-Dual KI-hSTING-H232 reporter assay (IRF pathway, secreted Lucia luciferase). Also noted: host or cells: THP1-Dual KI-hSTING-H232 (from THP1-Dual KO-STING). It is filed as cell-based. The note with it: THP1-Dual KI-hSTING-H232 cells, 24 hours; read-out: Reporter assay EC50 (nM) THP-1-H232.
T1 sequence (Q86WV6 whole entry): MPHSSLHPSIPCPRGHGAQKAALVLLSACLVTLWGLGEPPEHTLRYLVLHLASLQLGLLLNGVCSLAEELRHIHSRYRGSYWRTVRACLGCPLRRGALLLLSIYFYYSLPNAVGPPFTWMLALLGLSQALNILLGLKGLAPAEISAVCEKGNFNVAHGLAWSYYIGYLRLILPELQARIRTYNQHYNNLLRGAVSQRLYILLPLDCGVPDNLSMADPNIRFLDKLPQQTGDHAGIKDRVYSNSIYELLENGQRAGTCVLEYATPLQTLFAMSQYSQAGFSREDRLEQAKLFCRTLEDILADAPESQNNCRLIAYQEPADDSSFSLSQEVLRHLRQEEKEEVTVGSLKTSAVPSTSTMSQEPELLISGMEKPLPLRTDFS
The next assay has as its target T2, hSTING-HAQ haplotype (Homo sapiens, UniProt Q86WV6, G230A/H232R/R293Q/R71H).
T2 construct: host or cells: THP-1-Dual
The assay can be described thus: THP-1-Dual reporter assay (endogenous hSTING-HAQ). It is filed as cell-based. The settings on record: THP-1-Dual cells (hSTING-HAQ), 24 hours.

Another assay has as its target T3, hSTING-R232 (Homo sapiens, UniProt Q86WV6, H232R).
T3 construct: host or cells: THP1-Dual KI-hSTING-R232 (from THP1-Dual KO-STING)
As to the kind of experiment: THP1-Dual KI-hSTING-R232 reporter assay (IRF pathway, secreted Lucia luciferase). It is filed as cell-based. The settings on record: THP1-Dual KI-hSTING-R232 cells, 24 hours; read-out: Reporter assay EC50 (nM) THP-1-R232.

For the next assay, the target named is T4, mSTING (Mus musculus, UniProt Q3TBT3).
T4 sequence (Q3TBT3 1-378): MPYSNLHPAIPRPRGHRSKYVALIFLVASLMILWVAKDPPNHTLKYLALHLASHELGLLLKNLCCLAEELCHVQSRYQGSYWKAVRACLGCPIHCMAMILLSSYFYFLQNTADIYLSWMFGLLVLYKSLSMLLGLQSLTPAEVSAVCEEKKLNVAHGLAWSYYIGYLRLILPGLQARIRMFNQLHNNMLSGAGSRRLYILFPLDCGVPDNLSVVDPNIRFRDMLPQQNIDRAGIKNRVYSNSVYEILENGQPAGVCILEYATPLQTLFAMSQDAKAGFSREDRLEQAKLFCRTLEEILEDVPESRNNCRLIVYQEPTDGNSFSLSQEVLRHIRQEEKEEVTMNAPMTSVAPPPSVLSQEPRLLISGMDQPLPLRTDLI
The assay can be described thus: 293-mSTING reporter assay. It is filed as cell-based.

For the next assay, the target named is hSTING WT (Homo sapiens, UniProt Q86WV6). As to the kind of experiment: Surface plasmon resonance, hSTING WT. It is filed as binding. The settings on record: read-out: hSTING WT SPR (Kd).
Sequence of hSTING WT (Q86WV6 whole entry H232R): as the sequence (Q86WV6 whole entry) above, with H232R counted along it
Assay [3] concerns the target T1, hSTING H232. The assay can be described thus: Surface plasmon resonance, hSTING H232. It is filed as binding. The settings on record: read-out: hSTING H232 SPR (Kd).
In another assay the test system is NCI-H441. The assay can be described thus: NCI-H441/PBMC co-culture: cancer cell count. The settings on record: Table 9. It is filed as cell-based, human. The procedure: (§1) For the co-culture assay, cancer cells were plated on transparent flat bottom polystyrene plates and allowed to attach overnight. On the next day, serially diluted (1:4) test articles were formulated at 3× starting concentration in complete RPMI media and added onto each well. Human PBMCs were thawed and resuspended in RPMI supplemented with 10% heat-inactivated fetal bovine serum from Hyclone, 1% Penicillin/Streptomycin and 2 mmol/L-glutamax. PBMCs were then added into the same well at a final ratio of PBMCs:cancer cells =30:1. Plates were incubated for 2 or 3 days at 37° C. with 5% CO2 in a cell culture incubator.
(§2) On the day of sample collection, cell culture supernatants were collected and stored at −80° C. until cytokine release analyses were performed. […] After incubation on ice for 1 hour, cells were washed with FACS buffer and fixed with 50 ul/well of 2% PFA (paraformaldehyde) for 20 minutes. Cells were then washed with FACS buffer again and read on Cytek flow cytometer. FACS data analysis was done by Flowjo software to identifymonocytes, B cells, CD4+ T cells, CD8+ T cells, NK cells and Dendritic cells and their activation status. Data from Flowjo was exported and plotted using non-linear regression analysis, log (agonist/inhibitor) vs. response, variable slope, 4-parameter fit equation in GraphPad Prism. […]

For assay [4], the system named is TROP2 negative NCI-H460 cells. As to the kind of experiment: NCI-H460/PBMC co-culture: cancer cell count. It is filed as cell-based, human. The note with it: Table 10. On the procedure: as §1, §2
Where [5] appears, read: sandwich ELISA, read-out: HMGB-1 Release EC50.

T2 sequence (Q86WV6 whole entry R71H/G230A/H232R/R293Q): as the sequence (Q86WV6 whole entry) above, with R71H, G230A, H232R, R293Q counted along it
Sequence of hSTING AQ (Q86WV6 whole entry G230A/H232R/R293Q): as the sequence (Q86WV6 whole entry) above, with G230A, H232R, R293Q counted along it
T3 sequence (Q86WV6 whole entry H232R): as the sequence (Q86WV6 whole entry) above, with H232R counted along it

In the case of `CCn1nc(C)cc1C(=O)Nc1nc2cc(C(N)=O)ccc2n1C/C=C/Cn1c(NC(=O)c2cc(C)nn2CC)nc2cc(C(N)=O)cc(OCCCN3CC4(CNCCO4)C3)c21` [Compound 1], the Kd at hSTING AQ, at hSTING WT and at hSTING H232 [3] was ≤ 20 nM in each case. For the same molecule, the “HMGB-1 Release Span” value with NCI-H292 cells worked out at 17 ng/mL. In addition, the EC50 with NCI-H292 cells (setting [5]) was 6.06 nM; in assay [1] (read-out: IL-6 Release EC50) it was > 100 nM; in assay [1] (read-out: IP-10 Release EC50) it was > 100 nM; at hSTING H232 [2], ≤ 50 nM; at hSTING-HAQ haplotype, ≤ 50 nM; at hSTING-R232 it was ≤ 50 nM. In addition, the EC50 on mSTING is > 150 nM. The “IL-6 Release Span” value in assay [1] is recorded as >10000 pg/mL. For the same molecule, in assay [1], the “IP-10 Release Span” value is >4000 pg/mL.

For `CCn1nc(C)cc1C(=O)Nc1nc2cc(C(N)=O)ccc2n1C/C=C/Cn1c(NC(=O)c2cc(C)nn2CC)nc2cc(C(N)=O)cc(OCCCN3CC4(C3)CN(C(=O)[C@@H](N)CC(C)C)CCO4)c21` [Compound 2, (E)-7-(3-(8-(L-leucyl)-5-oxa-2,8-diazaspiro[3.5]nonan-2-yl)propoxy)-1-(4-(5-carbamoyl-2-(1-ethyl-3-methyl-1H-pyrazole-5-carboxamido)-1H-benzo[d]imidazol-1-yl)but-2-en-1-yl)-2-(1-ethyl-3-methyl-1H-pyrazole-5-carboxamido)-1H-benzo[d]imidazole-5-carboxamide], the Kd at hSTING AQ, at hSTING WT and at hSTING H232 [3] was ≤ 20 nM each time. Further, the EC50 on hSTING H232 [2] is ≤ 50 nM; on hSTING-HAQ haplotype it was 50 to 150 nM; on hSTING-R232, ≤ 50 nM; at mSTING, > 150 nM.

On to `CCn1nc(C)cc1C(=O)Nc1nc2cc(C(N)=O)ccc2n1C/C=C/Cn1c(NC(=O)c2cc(C)nn2CC)nc2cc(C(N)=O)cc(OCCCN3CC4(C3)CN(C(=O)CN)CCO4)c21` [Compound 3], for which the equilibrium dissociation constant (Kd) on hSTING AQ, on hSTING WT and at hSTING H232 [3] was ≤ 20 nM each time. Moreover, the EC50 at hSTING H232 [2] is 50 to 150 nM; at hSTING-HAQ haplotype, 50 to 150 nM; on hSTING-R232 it was 50 to 150 nM; on mSTING it was > 150 nM.

As for `CCn1nc(C)cc1C(=O)Nc1nc2cc(C(N)=O)cc(OC)c2n1C/C=C/Cn1c(NC(=O)c2cc(C)nn2CC)nc2cc(C(N)=O)cc(OCCCN3CC4(CNCCO4)C3)c21` [Compound 6], the Kd on hSTING AQ, at hSTING WT and on hSTING H232 [3] was ≤ 20 nM in each case. Also, the EC50 at hSTING H232 [2] was ≤ 50 nM; at hSTING-HAQ haplotype, ≤ 50 nM; at hSTING-R232, ≤ 50 nM; on mSTING, 50 to 150 nM.

Turning to `CC[C@@]1(O)C(=O)OCc2c1cc1n(c2=O)Cc2c-1nc1cc(F)c(C)c3c1c2[C@@H](N)CC3` [Exatecan, reference compound], the “Calreticulin Span (MFI)” value in the assay on NCI-H292 cells was determined as 783 MFI. The “HMGB-1 Release Span” value in the assay with NCI-H292 cells came to 55 ng/mL. For the same molecule, the EC50 amounted to 2.08 nM in the assay on NCI-H292 cells (setting [5]); 0.19 nM in the assay on NCI-H292 cells (surface calreticulin on live cells, read-out: Calreticulin EC50); 14.7 nM in [1] (read-out: IL-6 Release EC50); 0.87 nM in [1] (read-out: IP-10 Release EC50). Also, the “IL-6 Release Span” value in assay [1] was 1410 pg/mL. Moreover, the “IP-10 Release Span” value in assay [1] was 203 pg/mL. Also, the IC50 in the assay on NCI-H441 (Homo sapiens) came to 0.44 nM; in assay [4] (Homo sapiens, NCI-H460/PBMC co-culture (TROP2 negative)), 0.38 nM. The “Cancer Cell Count Span (Cell Count)” value is 5,749 Cell Count in the assay on NCI-H441 and 23,530 Cell Count in assay [4] (NCI-H460/PBMC co-culture).

Turning to `CCn1nc(C)cc1C(=O)Nc1nc2cc(C(N)=O)ccc2n1C/C=C/Cn1c(NC(=O)c2cc(C)nn2CC)nc2cc(C(N)=O)cc(OCCCN3CC4(C3)CN(C(=O)CON)CCO4)c21` [LP-1-1, 7-[3-[8-(2-aminooxyacetyl)-5-oxa-2,8-diazaspiro[3.5]nonan-2-yl]propoxy]-1-[(E)-4-[5-carbamoyl-2-[(2-ethyl-5-methyl-pyrazole-3-carbonyl)amino]benzimidazol-1-yl]but-2-enyl]-2-[(2-ethyl-5-methyl-pyrazole-3-carbonyl)amino]benzimidazole-5-carboxamide], the Kd on hSTING AQ, at hSTING WT and at hSTING H232 [3] was ≤ 20 nM throughout. The half-maximal effective concentration (EC50) on hSTING H232 [2] is > 150 nM; at hSTING-HAQ haplotype, 50 to 150 nM; at hSTING-R232, > 150 nM; at mSTING, > 150 nM.
